These results are taken from patent US11078198B2 (BRISTOL-MYERS SQUIBB COMPANY, priority 2017, dated 2021).

The target of this experiment is T1, human FXR (Homo sapiens, UniProt Q96RI1).
T1 construct: expressed in transfected cells; host or cells: HEK293 cells stably carrying a 5xGal4-response-element firefly luciferase reporter, transiently transfected with pcDNA3.1-Gal4-FXR
T1 sequence (Q96RI1 262-486 limits assumed): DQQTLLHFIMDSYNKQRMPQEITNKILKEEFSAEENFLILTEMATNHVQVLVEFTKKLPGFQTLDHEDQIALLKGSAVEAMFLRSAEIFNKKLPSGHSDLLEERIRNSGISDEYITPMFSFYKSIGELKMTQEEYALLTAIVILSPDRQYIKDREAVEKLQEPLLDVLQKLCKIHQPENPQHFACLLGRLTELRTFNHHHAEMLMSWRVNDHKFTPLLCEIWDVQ
Briefly: transient human FXR/Gal4-luciferase reporter assay. It counts as cell-based. The conditions noted are these: Gal4-hFXR transfected HEK293 reporter cells; relative to 8 μM GW-4064. In short, it runs like this:
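Transient Gal4-hFXR LBD fusion (pcDNA3.1, Lipofectamine, overnight) expressed in a HEK293 reporter line stably bearing five Gal4 elements upstream of firefly luciferase, grown in charcoal/dextran-stripped FBS. Compound dilutions in DMSO incubated with cells overnight at 37° C, 5% CO2, before luciferase readout.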

On to `O=C(O)c1cc(C(F)(F)F)c2cc(N3CCC4(C=C(c5c(-c6c(F)cccc6F)noc5C5CC5)C4)CC3)ccc2n1` [Example 82, 6-(2-(5-Cyclopropyl-3-(2,6-difluorophenyl)isoxazol-4-yl)-7-azaspiro[3.5]non-1-en-7-yl)-4-(trifluoromethyl)quinoline-2-carboxylic acid], for which the EC50 (commonly the concentration at which the effect is half-maximal) stood at 356 nM.

`Cc1cc(C(=O)O)cc2sc(N3CCC4(C=C(c5c(-c6c(Cl)cccc6Cl)noc5C5CC5)C4)CC3)nc12` [Example 45, 2-(2-(5-Cyclopropyl-3-(2,6-dichlorophenyl)isoxazol-4-yl)-7-azaspiro[3.5]non-1-en-7-yl)-4-methylbenzo[d]thiazole-6-carboxylic acid] came in with an EC50 of 11 nM.

Consider `O=C(O)c1ccc2cc(N3CCC4(C=C(c5c(-c6cnccc6C(F)(F)F)noc5C5CC5)C4)CC3)ccc2n1` [Example 154, 6-(2-(5-Cyclopropyl-3-(4-(trifluoromethyl)pyridin-3-yl)isoxazol-4-yl)-7-azaspiro[3.5]non-1-en-7-yl)quinoline-2-carboxylic acid], for which the EC50 came to 554 nM.

Take `O=C(O)c1cc(F)c2nc(N3CCC4(CC3)COC(c3c(-c5ccccc5OC(F)(F)F)noc3C3CC3)O4)sc2c1` (centres unmarked) [Example 42, 2-(2-(5-cyclopropyl-3-(2-(trifluoromethoxy)phenyl)isoxazol-4-yl)-1,3-dioxa-8-azaspiro[4.5]decan-8-yl)-4-fluorobenzo[d]thiazole-6-carboxylic acid]: the EC50 stood at 1000 nM.

As to `O=C(O)c1cnc(N2CCC3(C=C(c4c(-c5c(Cl)cccc5Cl)noc4C4CC4)C3)CC2)nc1C(F)(F)F` [Example 119, 2-(2-(5-Cyclopropyl-3-(2,6-dichlorophenyl)isoxazol-4-yl)-7-azaspiro[3.5]non-1-en-7-yl)-4-(trifluoromethyl)pyrimidine-5-carboxylic acid], the midpoint of the response, the EC50, lay at 316 nM.

Turning to `O=C(O)c1cccc(COC2CCC3(CC2)CC(O)(c2c(-c4c(Cl)cccc4Cl)noc2C2CC2)C3)c1` (centres unmarked) [Example 206, 3-(((2-(5-Cyclopropyl-3-(2,6-dichlorophenyl)isoxazol-4-yl)-2-hydroxyspiro[3.5]nonan-7-yl)oxy)methyl)benzoic acid], the EC50 was determined as 4710 nM.

`O=C(O)c1cc(C(F)(F)F)c2cc(N3CCC4(C=C(c5c(-c6cnccc6C(F)(F)F)noc5C5CC5)C4)CC3)ccc2n1` [Example 90, 6-(2-(5-Cyclopropyl-3-(4-(trifluoromethyl)pyridin-3-yl)isoxazol-4-yl)-7-azaspiro[3.5]non-1-en-7-yl)-4-(trifluoromethyl)quinoline-2-carboxylic acid]: the EC50 stood at 195 nM.

As for `O=C(O)c1ccc(N2CCC3(C=C(c4c(-c5ccccc5OC(F)(F)F)noc4C4CC4)C3)CC2)nc1` [Example 21, 6-(2-(5-Cyclopropyl-3-(2-(trifluoromethoxy)phenyl)isoxazol-4-yl)-7-azaspiro[3.5]non-1-en-7-yl) nicotinic acid], the EC50 amounted to 770 nM.

`O=C(O)c1cc(F)c2nc(N3CCC4(C=C(c5c(-c6c(Cl)cc(F)cc6Cl)noc5C5CC5)C4)CC3)sc2c1` [Example 48, 2-(2-(5-Cyclopropyl-3-(2,6-dichloro-4-fluorophenyl)isoxazol-4-yl)-7-azaspiro[3.5]non-1-en-7-yl)-4-fluorobenzo[d]thiazole-6-carboxylic acid] showed an EC50 of 115 nM.

`O=C(O)c1cc2ccc(N3CCC4(C=C(c5c(-c6c(F)cccc6F)noc5C5CC5)C4)CC3)cc2nn1` [Example 79, 7-(2-(5-Cyclopropyl-3-(2,6-difluorophenyl)isoxazol-4-yl)-7-azaspiro[3.5]non-1-en-7-yl)cinnoline-3-carboxylic acid] had an EC50 of 733 nM.

As for `O=C(O)c1cc(F)c2nc(N3CCC4(C=C(c5c(-c6c(F)cccc6F)noc5C5CC5)C4)CC3)sc2c1` [Example 137, 2-(2-(5-Cyclopropyl-3-(2,6-difluorophenyl)isoxazol-4-yl)-7-azaspiro[3.5]non-1-en-7-yl)-4-fluorobenzo[d]thiazole-6-carboxylic acid], the EC50 stood at 155 nM.
